Laboratory results taken from article PMC12079500, “An Intracellular Peptide Library Screening Platform Identifies Irreversible Covalent Transcription Factor Inhibitors” (Advanced Science, 2025).
Where “and” joins values, the source holds several entries; their conditions need not be identical. Equal values may be shown once. Read-outs that look alike come from different tables or passages of the source. *1 amine or outer side, *2 acyl side, *3 side chain or, on linkers, in order; H or OH if unused. Where a SMILES comes first, the peptide text is derived from it. Bridges are numbered along the chain shown (N, C = ends). [ ]: non-standard residue; d: D form. Met(S-mXyl) = C[S+](CC[C@H](N[*:1])C(=O)[*:2])Cc1cccc(C[*:3])c1

What was measured:
cJun [1] = biological target: T1, cJun (Homo sapiens, UniProt P05412); experiment: CD thermal denaturation of antagonist-cJun heterodimer; assay type: binding; set-up: LC-MS analysis of the cJun bZIP domain; made in house
T1 sequence (P05412 252-315 limits assumed): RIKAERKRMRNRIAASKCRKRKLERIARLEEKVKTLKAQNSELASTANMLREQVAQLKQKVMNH
Procedure: (§1) Circular dichroism (CD): An Applied Photophysics Chirascan was used for CD measurements, with a 200 µL sample in a 1 mm path length CD cell. Protein/DNA samples were suspended in 20 mM potassium phosphate,150 mM potassium fluoride at pH 7.4 with or without 5 mM TCEP. cJun was added to TRE DNA (5’-[…], Merck) before addition of antagonist peptide and these samples were equilibrated for 30 minutes before measurement.^[13] For full spectra, three scans between 190 and 260 nm (265-320 nm for DNA binding experiments) were collected with a bandwidth of 1 nm and data sampled at a rate of 0.5 s^-1. These scans were averaged and converted to molar residue ellipticities (MRE). Thermal denaturation experiments were performed by measuring the ellipticity at 222 nm over a 1 to 95°C gradient at 1°C increments. Post-melt scans at 20°C confirmed the transitions were reversible as they overlaid within 5% of the pre-melt scan. The resulting thermal denaturation curves were converted to MRE and fitted to a two-state model, derived via modification of the Gibbs–Helmholtz equation to determine the melting temperature (Tm) ^[26].

cJun/TRE DNA = biological target: T2, cJun/TRE DNA (Homo sapiens, UniProt P05412); experiment: CD cJun/TRE DNA antagonism assay (TRE DNA signal at 281 nm); assay type: biochemical; details: for IC50: pH 7.4, 30 min equilibration, triplicate data, Hill fit, error one SD
T2 construct: LC-MS analysis of the cJun bZIP domain; made in house
T2 sequence (P05412 252-315 limits assumed): as above
Description: CD antagonism experiments were next carried out, as previously described,^[ [13], [18] ^] whereby the structure of a TRE DNA duplex was monitored by following a peak at 281 nm, which shifts upon binding to cJun. The introduction of antagonist to the sample causes the peak to shift back to its unbound signal in a dose‐dependent manner as the cJun is sequestered, leaving unbound DNA in its original structure (Figure S9, Supporting Information). As there is no protein absorbance in this region of the CD spectrum, this measures DNA structure only and produces a simple readout of the proportion of free/cJun‐bound DNA at different antagonist concentrations. By fitting these plots to a Hill equation (OriginPro), IC50 values for HW1, HW29, and HW31 were determined in both reducing and oxidizing conditions (Table S1, Supporting Information; Figure 3C).
as §1

cJun [2] = biological target: T1, cJun; experiment: ESI-MS of HW31 + cJun mixture; assay type: binding; set-up: LC-MS analysis of the cJun bZIP domain; made in house; details: HW31 50 µM + cJun 50 µM, oxidising conditions; reduced back by TCEP
Procedure: A mixture of HW31 (50 µM) and cJun (50 µM, Figure S4, Supporting Information) was first shown to form a disulphide‐bridged complex by ESI‐MS, which could be reduced back to the separate species by the addition of TCEP (Figure S5, Supporting Information). Further, an Alphafold 3 prediction of HW31 (prediction without lactam bridge) bound to cJun indicates the complex forms the predicted coiled coil interaction with the formation of a disulphide between cJun C269 and HW31 C2 (Figure 3A; Figure S6, Supporting Information).^[ [17] ^] The interaction was next characterized using circular dichroism (CD) experiments in both oxidizing and reducing conditions. The mixing of HW31 and cJun in both conditions provided a clear increase in helicity, indicative of a binding interaction (Figure S7, Supporting Information). The measured HW31‐cJun heterodimer complex was ≈10% more helical in the oxidized buffer relative to the reduced. […] Analytical size exclusion chromatography further validated HW31/cJun binding and confirmed the formation of a 1:1 stoichiometric complex (Figure S8, Supporting Information).

cJun [3] = biological target: T1, cJun; experiment: CD spectra (helicity) of HW31-cJun mixture; assay type: binding; set-up: LC-MS analysis of the cJun bZIP domain; made in house; details: oxidised vs reduced buffer
Procedure: as §1

CREB1 = CREB1 (Homo sapiens, UniProt P16220); experiment: Selectivity: incubation with CREB1 monitored by SDS-PAGE; assay type: biochemical; details: HW33 40 µM + CREB1 20 µM, 24 h
CREB1, sequence (P16220 whole entry, species assumed, the tested form may be a part): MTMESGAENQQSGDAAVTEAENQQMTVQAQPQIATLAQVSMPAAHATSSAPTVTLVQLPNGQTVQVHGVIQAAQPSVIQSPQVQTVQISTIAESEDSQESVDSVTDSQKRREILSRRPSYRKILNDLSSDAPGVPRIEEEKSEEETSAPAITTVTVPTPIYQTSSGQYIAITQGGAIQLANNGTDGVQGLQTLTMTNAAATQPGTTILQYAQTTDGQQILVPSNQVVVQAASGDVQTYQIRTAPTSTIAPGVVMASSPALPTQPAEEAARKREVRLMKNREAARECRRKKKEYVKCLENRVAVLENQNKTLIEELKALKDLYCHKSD
Procedure: The selectivity of this reaction, which is highly proximity‐driven, was first investigated by incubating HW33 (40 µM) with CREB1 (20 µM), a closely related bZIP‐containing TF that contains a Cys residue at the same position within the bZIP domain as cJun. Moreover, CREB1 contains two additional Cys residues located within the LZ domain that are not found within cJun. […] To further investigate HW33 selectivity for cJun, a reaction was next undertaken in SK‐MEL‐28 human melanoma cell lysate using FAM‐HW33, in which the N‐terminal acetyl group of HW33 was replaced with carboxyfluorescein to allow for peptide detection (Figure S17, Supporting Information). Samples containing cJun bZIP (20 µM) and FAM‐HW33 (20 µM) were incubated with or without lysate (10 µg) at 37 °C for 4 h before analysis by SDS‐PAGE (Figure 4E). […]
Covalent conjugation assays: Initial tests were performed by incubation of HW32 and HW33 (40 µM) with cJun bZIP (20 µM) in 50 mM potassium phosphate butter, 150 mM NaCl, pH 7.4 at 37°C, shaking at 450 rpm. […] The samples were analysed by LC-MS on a Luna C18(2) column (5-μm particle size, 100 Å pore size, 150 × 4.6 mm; Phenomenex). The % occupancy was determined by the ratio of conjugated cJun over total cJun as determined by the area under the peaks in the chromatogram measured at a 215 nm wavelength, with their identity confirmed by ESI-MS. […]

cJun/FAM-TRE DNA = biological target: T3, cJun/FAM-TRE DNA (Homo sapiens, UniProt P05412); experiment: Fluorescence polarisation cJun/FAM-TRE DNA antagonism time course; assay type: biochemical; details: 10 nM FAM-TRE, 625 nM cJun, peptide 10000-20 nM, 5 mM TCEP, pH 7.4; quadruplicate
T3 construct: LC-MS analysis of the cJun bZIP domain; made in house
T3 sequence (P05412 252-315 limits assumed): as the sequence (P05412 252-315 limits assumed) above

Row | Antagonist-cJun heterodimer Tm, reduced (cJun [1]; CD at 222 nm, 1-95 °C, 20 mM potassium phosphate, 150 mM KF, pH 7.4, with 5 mM TCEP (reducing)) | Antagonist-cJun heterodimer Tm, oxidised (cJun [1]; CD at 222 nm, 1-95 °C, 20 mM potassium phosphate, 150 mM KF, pH 7.4, without TCEP (oxidising), HW31 50 µM + cJun 50 µM) | Antagonist-cJun heterodimer Tm, Δox-red (cJun [1]; difference of Tm in oxidising and reducing buffer) | IC50 (cJun/TRE DNA; oxidising buffer (no TCEP), read-out: cJun-TRE DNA IC50, oxidised) [µM] | cJun-TRE DNA IC50, fold improved (oxidised vs reduced) (cJun/TRE DNA; ratio of IC50 reduced / oxidised) | IC50 (cJun/TRE DNA; reducing buffer (5 mM TCEP), read-out: cJun-TRE DNA IC50, reduced) [µM] | Disulphide formation with cJun (cJun [2]) | Increase in helicity of the HW31-cJun heterodimer complex in oxidized buffer relative to reduced (cJun [3]) | Fold increase in antagonism over the 4 h time course (cJun/TRE DNA; CD antagonism time course) [fold] | Conjugation with CREB1 (CREB1) | Structure (SMILES) | Time dependence of CD antagonism compared with HW1 (cJun/TRE DNA; IC50 plotted over time) | Time dependence of FP antagonism compared with HW1 (cJun/FAM-TRE DNA)
1 | 66.6 °C and 67 °C | 81.2 °C and 81 °C | 14.6 °C and 14 °C | 12.1 ± 0.3 | 4 | 48.3 ± 1.8 | covalent attachment via a disulphide | ≈ 10% |  |  | CC[C@H](C)[C@H](NC(=O)[C@H](CCC(=O)O)NC(=O)[C@H](CCCCN)NC(=O)[C@H](CCCNC(=N)N)NC(=O)[C@H](CC(C)C)NC(=O)[C@H](C)NC(=O)[C@H](Cc1ccc(O)cc1)NC(=O)[C@H](CC(N)=O)NC(=O)[C@H](CCCNC(=N)N)NC(=O)[C@H](CCC(=O)O)NC(=O)[C@H](CCC(=O)O)NC(=O)[C@H](CC(C)C)NC(=O)[C@H](CCC(N)=O)NC(=O)[C@H](CCC(=O)O)NC(=O)[C@@H](NC(=O)[C@H](CCC(=O)O)NC(=O)[C@H](CCC(=O)O)NC(=O)[C@H](CCC(=O)O)NC(=O)[C@H](CC(C)C)NC(=O)[C@@H](NC(=O)[C@H](CC(=O)O)NC(=O)[C@H](CCC(=O)O)NC(=O)[C@H](CCC(=O)O)NC(=O)[C@@H](NC(=O)[C@@H](NC(=O)[C@H](CC(C)C)NC(=O)[C@H](CCC(=O)O)NC(=O)[C@H](CCC(=O)O)NC(=O)[C@H](CS)NC(=O)[C@H](CCC(=O)O)NC(C)=O)C(C)C)C(C)C)C(C)C)[C@@H](C)CC)C(=O)N[C@H]1CCCCNC(=O)C[C@@H](C(=O)N[C@@H](CCC(N)=O)C(N)=O)NC(=O)[C@H](CCC(N)=O)NC(=O)[C@H](CC(C)C)NC(=O)[C@H](CC(=O)O)NC1=O [HW31] (Ac-ECEELVVEEDVLEEEIEQLEERNYALRKEIKDLQDQ-NH2; lactam 31-35) |  | 
2 |  |  |  |  |  |  |  |  | 5 | no conjugation observed | CC[C@H](C)[C@H](NC(=O)[C@H](CCC(=O)O)NC(=O)[C@H](CCCCN)NC(=O)[C@H](CCCNC(=N)N)NC(=O)[C@H](CC(C)C)NC(=O)[C@H](C)NC(=O)[C@H](Cc1ccc(O)cc1)NC(=O)[C@H](CC(N)=O)NC(=O)[C@H](CCCNC(=N)N)NC(=O)[C@H](CCC(=O)O)NC(=O)[C@H](CCC(=O)O)NC(=O)[C@H](CC(C)C)NC(=O)[C@H](CCC(N)=O)NC(=O)[C@H](CCC(=O)O)NC(=O)[C@@H](NC(=O)[C@H](CCC(=O)O)NC(=O)[C@H](CCC(=O)O)NC(=O)[C@H](CCC(=O)O)NC(=O)[C@H](CC(C)C)NC(=O)[C@@H](NC(=O)[C@H](CC(=O)O)NC(=O)[C@H](CCC(=O)O)NC(=O)[C@H](CCC(=O)O)NC(=O)[C@@H](NC(=O)[C@@H]1CSCc2cccc(c2)C[S+](C)CC[C@H](NC(=O)[C@H](CCC(=O)O)NC(C)=O)C(=O)N[C@@H](CCC(=O)O)C(=O)N[C@@H](CCC(=O)O)C(=O)N[C@@H](CC(C)C)C(=O)N1)C(C)C)C(C)C)[C@@H](C)CC)C(=O)N[C@H]1CCCCNC(=O)C[C@@H](C(=O)N[C@@H](CCC(N)=O)C(N)=O)NC(=O)[C@H](CCC(N)=O)NC(=O)[C@H](CC(C)C)NC(=O)[C@H](CC(=O)O)NC1=O (stereo partly drawn) [HW33] (Ac-E[Met(S-mXyl)]EELCVEEDVLEEEIEQLEERNYALRKEIKDLQDQ-NH2; thioether 2-6; lactam 31-35) | improved antagonism over HW1 after 60 min | improved antagonism over HW1 after 240 minutes
